In patent US3968101A, “8-Substituted cyclic nucleotides by free radical alkylation and acylation” (ICN Pharmaceuticals, Inc., priority 1974, dated 1976):
pIC50: −log10 of the molar value. Counter-ions that a name gives are not always drawn.

Experiments:
[1] = test system: cGMP-dependent protein kinase; assay: Activation of cGMP-dependent protein kinase isolated from lobster tail; type: biochemical; settings: for Protein Kinase, Ka ' Lobster: ratio of Ka of cGMP to Ka of test compound, lobster tail cGMP-dependent kinase; for ability to activate the cGMP-dependent protein kinase (in words): lobster tail kinase; for specificity between cGMP-dependent and cAMP-dependent protein kinase (in words): lobster tail cGMP-dependent versus bovine brain cAMP-dependent kinase
Source text: The new 8-substituted purine cyclic nucleotides were examined for their ability to stimulate both a cAMP-dependent protein kinase isolated from beef brain and a cGMP-dependent protein kinase isolated from lobster tail (see Table II). […]. Acad. Sci. USA 64, 1349, Kuo et al, 1971, J. Biol. Chem. 246,7159) to be mediated by its activation of a protein kinase.
The Ka of cAMP for the cAMP-dependent protein kinase is about the same (see footnote a, Table II) as the Ka of cGMP for the cGMP-dependent protein kinase. Comparison of the Ka ' values (the ratio of Ka of the dependent cyclic nucleotide to the Ka of the test compound) is, therefore, an accurate guide to the type of kinase stimulation seen at a given cyclic nucleotide concentration.
a Ka ' = The ratio of Ka of the dependent cyclic nucleotide (cAMP for bovine brain and cGMP for lobster tail) to the Ka of the test compound. […]

[2] = test system: cAMP-dependent protein kinase; assay: Activation of cAMP-dependent protein kinase isolated from beef brain; type: biochemical, bovine; settings: for Protein Kinase, Ka ' Bovine: ratio of Ka of cAMP to Ka of test compound, bovine brain cAMP-dependent kinase; for activation of the cAMP-dependent protein kinase (in words): bovine brain kinase
Source text: The new 8-substituted purine cyclic nucleotides were examined for their ability to stimulate both a cAMP-dependent protein kinase isolated from beef brain and a cGMP-dependent protein kinase isolated from lobster tail (see Table II).
a Ka ' = The ratio of Ka of the dependent cyclic nucleotide (cAMP for bovine brain and cGMP for lobster tail) to the Ka of the test compound.

[3] = test system: cyclic nucleotide phosphodiesterase; assay: Susceptibility to hydrolysis by rabbit kidney cyclic nucleotide phosphodiesterase; type: biochemical; settings: rabbit kidney enzyme preparation; times the rate of cAMP
Source text: All compounds were examined for their susceptibility to hydrolysis by cyclic nucleotide phosphodiesterase. Both cGMP and cIMP were hydrolyzed at approximately one-half the rate of cAMP by a rabbit kidney enzyme preparation generally prepared in the manner described below for rabbit lung enzyme. The new 8-substituted derivatives were not substrates (rate of hydrolysis<0.05 that of the rate of cAMP hydrolysis) within the limits of detection of our assay, with the sole exception of 8-(1-hydroxybutyl)-cGMP (12), which was hydrolyzed at a rate 0.18 times the rate of hydrolysis of cAMP. This finding is in agreement with the general conclusion that 8-substitution of a purine 3',5'-cyclic ribonucleotide greatly reduces the ability of the resulting derivative to serve as a substrate for cyclic nucleotide phosphodiesterase.

[4] = molecular target: cyclic nucleotide phosphodiesterase; assay: Inhibition of cAMP hydrolysis by beef heart cyclic nucleotide phosphodiesterase; type: biochemical; settings: beef heart enzyme; 50% inhibition of cleavage of cAMP, cAMP = 1.6 × 10^-7 M; read-out: Phosphodiesterase Inhibition, I50 Heart
Source text: (§1) Homogenates of rabbit lung and beef heart are made in sucrose-Tris-magnesium buffer and are subjected to centrifugation at low speed to remove nuclei and cell debris. […] The precipitation which forms at 0-50% saturation is collected by centrifugation at 20,000 × g, dissolved in Tris-magnesium buffer, and dialyzed overnight against the same buffer.

[5] = molecular target: cyclic nucleotide phosphodiesterase; assay: Inhibition of cAMP hydrolysis by rabbit lung cyclic nucleotide phosphodiesterase; type: biochemical; settings: rabbit lung enzyme; 50% inhibition of cleavage of cAMP, cAMP = 1.6 × 10^-7 M; read-out: Phosphodiesterase Inhibition, I50 Lung
Source text: as §1

Row | SMILES | Protein Kinase, Ka ' Lobster [1] | Protein Kinase, Ka ' Bovine [2] | rate of hydrolysis relative to the rate of cAMP hydrolysis [3] | pIC50 [4] | pIC50 [5] | ability to activate the cGMP-dependent protein kinase (in words) [1] | activation of the cAMP-dependent protein kinase (in words) [2] | specificity between cGMP-dependent and cAMP-dependent protein kinase (in words) [1]
1 | Nc1nc2c(ncn2[C@@H]2O[C@@H]3COP(=O)(O)O[C@H]3[C@H]2O)c(=O)[nH]1 [Compound 1, guanosine 3',5'-cyclic phosphate, reference compound] | 1.0 | 0.023 | approximately one-half | – | – | – | – | –
2 | Cc1nc2c(=O)[nH]c(N)nc2n1[C@@H]1O[C@@H]2COP(=O)(O)O[C@H]2[C@H]1O [Compound 2, 8-Methylguanosine 3',5'-Cyclic Phosphate] | 0.066 | 0.015 | – | 3.70 | 3.40 | – | – | –
3 | Nc1nc2c(nc(Cc3ccccc3)n2[C@@H]2O[C@@H]3COP(=O)(O)O[C@H]3[C@H]2O)c(=O)[nH]1 [Compound 4, 8-Benzylguanosine 3',5'-Cyclic Phosphate] | 0.10 | < 0.001 | – | 3.85 | 3.89 | – | – | –
4 | CC(=O)c1nc2c(=O)[nH]c(N)nc2n1[C@@H]1O[C@@H]2COP(=O)(O)O[C@H]2[C@H]1O [Compound 6, 8-Acetylguanosine 3',5' -Cyclic Phosphate] | 0.56 | < 0.001 | – | 3.77 | 4.15 | – | – | –
5 | NC(=O)c1nc2c(=O)[nH]c(N)nc2n1[C@@H]1O[C@@H]2COP(=O)(O)O[C@H]2[C@H]1O [Compound 10, 8-Carbamoylguanosine 3',5'-Cyclic Phosphate] | 1.5 | < 0.001 | – | 4.00 | 3.40 | superior to cGMP | – | –
6 | CC(O)c1nc2c(=O)[nH]c(N)nc2n1[C@@H]1O[C@@H]2COP(=O)(O)O[C@H]2[C@H]1O (some centres unmarked) [Compound 11, 8-(1-Hydroxyethyl)guanosine 3',5'-Cyclic Phosphate] | 1.8 | < 0.01 | – | 3.77 | 3.40 | superior to cGMP | – | –
7 | Nc1nc2c(nc(C(O)c3ccccc3)n2[C@@H]2O[C@@H]3COP(=O)(O)O[C@H]3[C@H]2O)c(=O)[nH]1 (stereo partly drawn) [Compound 14, 8-(α-Hydroxybenzyl)guanosine 3',5'-Cyclic Phosphate] | 2.3 | < 0.005 | – | < 3.52 | 3.85 | superior to cGMP | – | –
8 | CC(=NNC(N)=O)c1nc2c(=O)[nH]c(N)nc2n1[C@@H]1O[C@@H]2COP(=O)(O)O[C@H]2[C@H]1O [Compound 16, 8-Acetylguanosine 3',5'-Cyclic Phosphate Semicarbazone] | 0.031 | < 0.005 | – | 3.90 | 3.70 | – | – | –
9 | CC(=NNc1ccccc1)c1nc2c(=O)[nH]c(N)nc2n1[C@@H]1O[C@@H]2COP(=O)(O)O[C@H]2[C@H]1O [Compound 18, 8-Acetylguanosine 3',5'-Cyclic Phosphate Phenylhydrazone] | 0.44 | < 0.005 | – | 4.00 | 2.70 | – | – | –
10 | CC(=O)c1nc2c(=O)[nH]cnc2n1[C@@H]1O[C@@H]2COP(=O)(O)O[C@H]2[C@H]1O [Compound 20, 8-Acetylinosine 3',5'-Cyclic Phosphate] | 0.0041 | 0.022 | – | 3.00 | 2.70 | slight activation | slight activation | slightly greater specificity for the cAMP-dependent enzyme
11 | Cn1c(=O)c2[nH]cnc2n(C)c1=O [theophylline, reference compound] | – | – | – | 4.00 | 3.70 | – | – | –

The remaining compounds from weak to strong by pIC50 [4], led by results:

Row | Protein Kinase, Ka ' Lobster [1] | Protein Kinase, Ka ' Bovine [2] | rate of hydrolysis relative to the rate of cAMP hydrolysis [3] | pIC50 [4] | pIC50 [5] | ability to activate the cGMP-dependent protein kinase (in words) [1] | activation of the cAMP-dependent protein kinase (in words) [2] | SMILES | specificity between cGMP-dependent and cAMP-dependent protein kinase (in words) [1]
12 | 0.70 | < 0.001 | – | 4.00 | 3.48 | – | – | CC(C)c1nc2c(=O)[nH]c(N)nc2n1[C@@H]1O[C@@H]2COP(=O)(O)O[C@H]2[C@H]1O [Compound 3, 8-Isopropylguanosine 3',5'-Cyclic Phosphate] | –
13 | 0.16 | < 0.001 | – | 4.00 | 4.15 | – | – | CC(C)(C)Cc1nc2c(=O)[nH]c(N)nc2n1[C@@H]1O[C@@H]2COP(=O)(O)O[C@H]2[C@H]1O [Compound 5, 8-Neopentylguanosine 3',5'-Cyclic Phosphate] | –
14 | 0.20 | 0.064 | – | 4.05 | 4.15 | – | – | CCCC(=O)c1nc2c(=O)[nH]c(N)nc2n1[C@@H]1O[C@@H]2COP(=O)(O)O[C@H]2[C@H]1O [Compound 7, 8-Butyrylguanosine 3',,5' -cyclic phosphate] | –
15 | 0.011 | 0.070 | – | 4.15 | 3.40 | slight activation | slight activation | O=C(c1ccccc1)c1nc2c(=O)[nH]cnc2n1[C@@H]1O[C@@H]2COP(=O)(O)O[C@H]2[C@H]1O [Compound 21, 8-Benzoylinosine 3',5'-Cyclic Phosphate] | slightly greater specificity for the cAMP-dependent enzyme
16 | 0.68 | < 0.005 | – | 4.30 | – | – | – | Nc1nc2c(nc(C(=O)c3ccccc3)n2[C@@H]2O[C@@H]3COP(=O)(O)O[C@H]3[C@H]2O)c(=O)[nH]1 [Compound 9, 8-Benzoylguanosine 3',5'-cyclic phosphate] | –
17 | 0.052 | < 0.005 | – | 4.30 | 4.59 | – | – | CC(=NNC(N)=S)c1nc2c(=O)[nH]c(N)nc2n1[C@@H]1O[C@@H]2COP(=O)(O)O[C@H]2[C@H]1O [Compound 15, 8-Acetylguanosine 3',5'-Cyclic Phosphate Thiosemicarbazone] | –
18 | 0.11 | < 0.01 | – | 4.40 | 3.82 | – | – | CC(=NNC(=O)Nc1ccccc1)c1nc2c(=O)[nH]c(N)nc2n1[C@@H]1O[C@@H]2COP(=O)(O)O[C@H]2[C@H]1O [Compound 17, 8-Acetylguanosine 3',5'-Cyclic Phosphate 4-Phenylsemicarbazone] | –
19 | 0.72 | < 0.001 | – | 4.42 | 3.74 | – | – | CC(C)C(O)c1nc2c(=O)[nH]c(N)nc2n1[C@@H]1O[C@@H]2COP(=O)(O)O[C@H]2[C@H]1O (some centres unmarked) [Compound 13, 8-(1-Hydroxy-2-methylpropyl)guanosine 3',5'-Cyclic Phosphate] | –
20 | 0.62 | < 0.001 | 0.18 | 4.54 | 3.88 | – | – | CCCC(O)c1nc2c(=O)[nH]c(N)nc2n1[C@@H]1O[C@@H]2COP(=O)(O)O[C@H]2[C@H]1O (some centres unmarked) [Compound 12, 8-(1-Hydroxybutyl)guanosine 3',5'-Cyclic Phosphate] | –
21 | 0.13 | < 0.01 | – | 4.96 | – | – | – | CC(C)C(=O)c1nc2c(=O)[nH]c(N)nc2n1[C@@H]1O[C@@H]2COP(=O)(O)O[C@H]2[C@H]1O [Compound 8, 8-Isobutyrylguanosine 3',5'-Cyclic Phosphate Ammonium Salt] | –
22 | 0.085 | 0.59 | approximately one-half | 5.41 | 4.00 | – | – | O=c1[nH]cnc2c1ncn2[C@@H]1O[C@@H]2COP(=O)(O)O[C@H]2[C@H]1O [Compound 19, Inosine 3',5'-cyclic phosphate, reference compound] | greater activation of the cAMP-dependent kinase
